Assay results as given in patent US20220340566A1, “BENZYL AMINE-CONTAINING 5,6-HETEROAROMATIC COMPOUNDS USEFUL AGAINST MYCOBACTERIAL INFECTION” (priority 2019, published 2022).
Where two headings read alike, the source gives them in different places.

Assays:
[1] = system: Mycobacterium avium ATCC700898; experiment: Determination of IC85 against M. avium (resazurin fluorescence); type: cell-based; conditions: Mycobacterium avium
[2] = Metabolic stability test in pooled human liver microsomes; type: in vitro ADME; conditions: human liver microsomes 0.5 mg protein/mL, 1 mmol/L NADPH, 37° C., 30 minutes
Procedure, shortened: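 Remaining-rate readout: parent compound left after 30 min versus 0 min (set as 100%), measured by LC/MS/MS or SPE/MS. Oxidative reaction ran at 37° C. with 1 mmol/L NADPH, 0.5 mg protein/mL pooled human microsomes, 50 mmol/L Tris-HCl pH 7.4 buffer.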

[3] = ATCC700898, M. avium ATCC700898, CAMHB medium, 37° C., 3 days incubation then resazurin, fluorescence one day later, read-out: IC85

SMILES | IC85 [1, 3] | MS_h_% (remaining amount of compound after reaction, 0 minute = 100%) [2] | IC85 ([1]; ATCC700898)
CCc1nc2ccc(Cl)cn2c1C(=O)NCc1ccc(OC2CCC(Oc3ccc(OC(F)(F)F)cc3)CC2)c(F)c1.Cl (centres unmarked) [Compound I-3-20] | 18 nM | 80.8% | –
Cc1ccc2nc(C)c(C(=O)NCc3ccc(Oc4cccc(C(F)(F)F)c4)cc3)n2c1 [Compound I-3-21] | 130 nM | 79.1% | –
Cc1cn2c(C(=O)NCc3ccc(-c4ccc(OC(C)C)cc4)c(F)c3)c(C)nc2s1 [Compound I-3-22] | 370 nM | 78.5% | –
Cc1nc2ccc(F)cn2c1C(=O)NCc1ccc(N2CCN(c3ccc(OC(F)(F)F)cc3)[C@@H](C)C2)cc1 [Compound I-3-23] | 15 nM | 77.8% | –
Cc1nc2ccc(Cl)cn2c1C(=O)NCc1cc(F)c2c(c1)CCN(C1CC=C(OC(F)(F)F)CC1)C2.Cl (centres unmarked) [Compound I-3-24] | 130 nM | 77.5% | –
CCc1nc2ccc(Cl)cn2c1C(=O)NCc1ccc(-n2ccc(C(F)(F)F)n2)cc1 [Compound I-3-25] | 140 nM | 77% | –
Cc1ccn2c(C(=O)NCc3ccc(N4CCN(C5CN(CC(F)(F)F)C5)[C@@H](C)C4)c(F)c3)c(C)nc2c1 [Compound I-3-26] | 960 nM | 77% | –
Cc1nc2ccc(Cl)cn2c1C(=O)NCc1ccc(N2CCC(c3ccc(OC(F)(F)F)cc3)CC2)cc1 [Compound I-3-27] | 12 nM | 75.5% | –
Cc1ccn2c(C(=O)NCc3ccc(N4CCN(c5ccc(OC(F)(F)F)cc5)[C@@H](C)C4)cc3)c(C)nc2c1 [Compound I-3-28] | 36 nM | 75.4% | –
Cc1cn2c(C(=O)NCc3ccc(N4CCN(c5ccc(OC(F)(F)F)cc5)[C@@H](C)C4)c(Cl)c3)c(C)nc2s1.Cl [Compound I-3-29] | 61 nM | 75.1% | –
Cc1cn2c(C(=O)NCc3ccc(-c4ccc(OCC(F)(F)F)cc4)c(F)c3)c(C)nc2s1 [Compound I-3-30] | 31 nM | 75.1% | –
Cc1cn2c(C(=O)NCc3ccc(C4CCN(c5ccc(OC(F)(F)F)cc5)CC4)c(F)c3)c(C)nc2s1 [Compound I-3-31] | 330 nM | 73.9% | –
Cc1cn2c(C(=O)NCc3ccc(N4CCN(c5ccc(OC(F)(F)F)cc5)[C@@H](C)C4)c(F)c3)c(C)nc2s1 [Compound I-3-32] | 820 nM | 72.6% | –
Cc1ccc2nc(C)c(C(=O)NCc3ccc(-c4ccc(C(F)(F)F)cc4)cc3)n2c1 [Compound I-3-33] | 2.2 nM | 72.6% | –
Cc1ccn2c(C(=O)NCc3ccc(C4CCN(C5CN(CC(F)(F)F)C5)CC4)c(F)c3)c(C)nc2c1 [Compound I-3-34] | 610 nM | 71.9% | –
[2H]c1c(C([2H])([2H])[2H])c([2H])n2c(C(=O)NCc3ccc(S(F)(F)(F)(F)F)cc3)c(C)nc2c1[2H] [Compound I-3-35] | 110 nM | 71.3% | –

SMILES | IC85 [1, 3] | MS_h_% (remaining amount of compound after reaction, 0 minute = 100%) [2] | IC85 ([1]; ATCC700898)
CCc1nc2cc(F)ccn2c1C(=O)NCc1ccc(-n2cc3c(n2)CN(c2ccc(OC(F)(F)F)cc2)C3)c(F)c1.Cl [Compound I-3-36] | 200 nM | 69% | –
Cc1nc2ccc(Br)cn2c1C(=O)NCc1ccc(N2CCC(c3ccc(F)cc3)CC2)cc1 [Compound I-3-37] | 16 nM | 68% | –
CC1=CN2C(=NC(C)C2C(=O)NCc2ccc3c(c2)OCCO3)C=C1 (centres unmarked) [Compound I-3-38] | 860 nM | 67.7% | –
[2H]c1c(C([2H])([2H])[2H])c([2H])n2c(C(=O)NCc3cc(F)ccc3F)c(C)nc2c1[2H] [Compound I-3-39] | 800 nM | 67.2% | –
CCc1nc2cc(C)ccn2c1C(=O)NCc1ccc(Oc2cccc(C(F)(F)F)c2)cc1 [Compound I-3-40] | 590 nM | 66% | –
Cl.O=C(NCc1ccc(OC2CCC(Oc3ccc(OC(F)(F)F)cc3)CC2)c(F)c1)c1cnc2ccc(Cl)cn12 (centres unmarked) [Compound I-3-41] | 150 nM | 65.4% | –
Cc1ccn2c(C(=O)NCc3ccc(N4CCN(CC(F)F)CC4)c(F)c3)cnc2c1 [Compound I-3-42] | 930 nM | 64.6% | –
Cc1cn2c(C(=O)NCc3ccc(N4CC5(CCN(c6ccc(C(F)(F)F)cc6)CC5)C4)c(F)c3)c(C)nc2s1 [Compound I-3-43] | 150 nM | 64.1% | –
Cc1ccc2nc(C)c(C(=O)NCc3ccc(S(F)(F)(F)(F)F)cc3)n2c1 [Compound I-3-44] | 110 nM | 63.9% | –
CCc1nc2ccc(Cl)cn2c1C(=O)NCc1ccc(-n2cc3c(n2)CN(c2ccc(OC(F)(F)F)cc2)C3)c(F)c1.Cc1ccc(S(=O)(=O)O)cc1 [Compound I-3-45] | – | 63.2% | 4.6 nM
Cc1cn2c(C(=O)NCc3ccc(Oc4cccc(C(F)(F)F)c4)cc3)c(C)nc2s1 [Compound I-3-46] | 610 nM | 63.1% | –
CCc1nc2ccc(Cl)cn2c1C(=O)NCc1ccc(-n2cc3c(n2)CN(c2ccc(OC(F)(F)F)cc2)C3)c(F)c1.Cl [Compound I-3-47] | 5.1 nM | 62% | –
Cc1nc2cnccn2c1C(=O)NCc1ccc(N2CCN(c3ccc(OC(F)(F)F)cc3)CC2)c(F)c1 [Compound I-3-48] | 660 nM | 60.4% | –
Cc1ccn2c(C(=O)NCc3ccc(O[C@H]4CCN(c5ccc(OC(F)(F)F)cc5)C4)c(F)c3)c(C)nc2c1 [Compound I-3-49] | 500 nM | 60.2% | –
COc1ccn2nc(C)c(C(=O)NCc3ccc(N4CCN(c5ccc(OC(F)(F)F)cc5)[C@@H](C)C4)cc3)c2c1 [Compound I-3-50] | 5.8 nM | 58.5% | –
